What is called IC50 is the point on the concentration scale where inhibition reaches its midpoint.

We go through 12 molecules from patent publication US12195482B1 (Arcus Biosciences, Inc., priority 2022, dated 2025).

In one assay the target is T1, recombinant human TYRO3 (Homo sapiens, UniProt Q06418).
T1 construct: purchased Invitrogen
T1 sequence (Q06418 41-890): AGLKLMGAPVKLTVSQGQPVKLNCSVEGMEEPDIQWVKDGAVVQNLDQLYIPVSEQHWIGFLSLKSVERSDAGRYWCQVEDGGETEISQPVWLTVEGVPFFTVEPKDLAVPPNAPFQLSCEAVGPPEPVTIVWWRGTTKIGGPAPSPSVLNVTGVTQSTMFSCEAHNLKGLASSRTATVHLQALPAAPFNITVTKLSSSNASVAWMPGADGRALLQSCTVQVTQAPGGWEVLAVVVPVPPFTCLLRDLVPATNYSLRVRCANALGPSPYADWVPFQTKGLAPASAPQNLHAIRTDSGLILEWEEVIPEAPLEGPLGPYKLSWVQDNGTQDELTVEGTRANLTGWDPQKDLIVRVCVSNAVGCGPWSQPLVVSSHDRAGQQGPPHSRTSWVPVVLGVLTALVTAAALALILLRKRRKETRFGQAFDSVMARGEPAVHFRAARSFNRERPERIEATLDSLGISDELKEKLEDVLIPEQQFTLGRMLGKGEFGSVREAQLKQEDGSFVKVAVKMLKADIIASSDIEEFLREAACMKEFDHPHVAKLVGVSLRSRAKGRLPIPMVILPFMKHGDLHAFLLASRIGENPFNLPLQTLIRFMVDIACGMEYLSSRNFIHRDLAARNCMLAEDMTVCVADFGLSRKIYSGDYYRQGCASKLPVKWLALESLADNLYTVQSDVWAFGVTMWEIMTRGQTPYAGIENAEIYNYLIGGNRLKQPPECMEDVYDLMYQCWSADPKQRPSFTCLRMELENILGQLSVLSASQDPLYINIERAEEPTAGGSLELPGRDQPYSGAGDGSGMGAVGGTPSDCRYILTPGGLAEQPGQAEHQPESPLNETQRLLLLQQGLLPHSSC
In words: Biochemical potency, HTRF KinEASE-TK kinase assay. To be noted: 1 nM TYRO3, 700 μM ATP. The procedure:
(§1) Measurement of Biochemical Compound Potency of Axl Inhibitors
(§2) Purified recombinant human AXL, TYRO3 and MER proteins were purchased from Invitrogen™. 10 nM AXL, 2 nM TYRO3 or MER were incubated with varying concentrations of compounds in 50 mM HEPES, pH 7.4, 10 mM MgCl2, 0.01% BSA, 1 mM DTT and 2% DMSO in a total volume of 20 μl in a 384-well microplate (Corning™ #3640) at RT for 1 h. The AXL, TYRO3 and MER enzymatic reaction was initiated by transferring 10 μl of enzyme and compound mixture into 10 μl of 1.6 μM TK Substrate-biotin (HTRF® KinEASE-TK kit, Cisbio) and 1400 μM ATP pre-incubated in 50 mM HEPES, pH 7.4, 10 mM MgCl2, 0.01% BSA, 1 mM DTT in a 384-well microplate (Corning™ #3640) at RT, giving the final reaction conditions: 5 nM AXL, 1 nM TYRO3 or MER, 800 nM TK Substrate-biotin and 700 μM ATP in 50 mM HEPES, pH 7.4, 10 mM MgCl2, 0.01% BSA, 1 mM DTT and 1% DMSO with varying concentrations of compounds. Following 2 h incubation at RT, the AXL, TYRO3 and MER enzymatic reaction was stopped by transfer of 10 μl of reaction into 10 μl of detection mix (400 nM Streptavidin-XL665, 200-fold dilution TK Antibody-Cryptate and detection buffer, HTRF® KinEASE-TK kit, Cisbio) in a white 384-well microplate (Perkin Elmer, OptiPlate 384). After 1 h incubation at RT, the plate was put into a plate reader (Evision) to read at 665/620 nm (acceptor/donor) for HTRF. The value of the DMSO blank (MIN inhibition=100% activity) was used as a negative control. The positive control was established by adding 5 μl of enzyme and DMSO mixture into 10 μl of detection mix followed by addition of 5 μl of TK Substrate-biotin and ATP mixture (MAX inhibition=0% activity). To calculate the percent activity, Equation 1 was used. Ratio665/620 is the value at a given compound concentration: […]

The target of a further assay is T2, recombinant human MER (Homo sapiens, UniProt Q12866).
T2 construct: purchased Invitrogen
T2 sequence (Q12866 21-999): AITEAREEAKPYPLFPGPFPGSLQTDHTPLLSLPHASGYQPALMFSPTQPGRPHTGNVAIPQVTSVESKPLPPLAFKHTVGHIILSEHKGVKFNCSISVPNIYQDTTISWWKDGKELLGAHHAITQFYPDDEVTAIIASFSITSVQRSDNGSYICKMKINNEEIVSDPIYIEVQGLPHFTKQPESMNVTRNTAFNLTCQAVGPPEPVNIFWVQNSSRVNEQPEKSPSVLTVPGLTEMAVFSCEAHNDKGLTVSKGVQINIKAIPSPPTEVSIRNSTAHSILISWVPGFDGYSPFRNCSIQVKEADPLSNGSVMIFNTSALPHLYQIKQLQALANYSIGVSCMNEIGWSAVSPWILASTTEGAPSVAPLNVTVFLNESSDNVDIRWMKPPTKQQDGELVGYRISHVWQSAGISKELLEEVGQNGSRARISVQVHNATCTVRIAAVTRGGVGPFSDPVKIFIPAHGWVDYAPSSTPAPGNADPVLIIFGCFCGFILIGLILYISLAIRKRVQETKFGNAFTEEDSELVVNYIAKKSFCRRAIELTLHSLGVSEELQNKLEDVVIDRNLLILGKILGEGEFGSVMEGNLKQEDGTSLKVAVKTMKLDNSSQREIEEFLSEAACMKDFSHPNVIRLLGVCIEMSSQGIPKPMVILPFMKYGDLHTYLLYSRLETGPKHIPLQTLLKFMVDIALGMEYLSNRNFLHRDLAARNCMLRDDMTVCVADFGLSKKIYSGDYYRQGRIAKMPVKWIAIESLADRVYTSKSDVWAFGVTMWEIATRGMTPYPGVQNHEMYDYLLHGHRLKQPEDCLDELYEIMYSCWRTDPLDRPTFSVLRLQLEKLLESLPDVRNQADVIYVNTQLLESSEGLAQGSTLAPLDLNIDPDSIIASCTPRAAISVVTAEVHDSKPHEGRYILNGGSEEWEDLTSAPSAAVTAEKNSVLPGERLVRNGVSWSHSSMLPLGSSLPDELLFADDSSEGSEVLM
In words: Biochemical potency, HTRF KinEASE-TK kinase assay. To be noted: 1 nM MER, 700 μM ATP. As for the experimental part:
as §1, §2

On to `Cc1cccnc1-c1ccc(-c2c[nH]c3ncc(-c4ccc5c(c4)CC[C@@H](N4C6COCC4C6)CC5)cc23)nc1` [Example 96, 3-Methyl-6′-{5-[(7S)-7-{3-oxa-6-azabicyclo[3.1.1]heptan-6-yl}-6,7,8,9-tetrahydro-5H-benzo[7]annulen-2-yl]-1H-pyrrolo[2,3-b]pyridin-3-yl}-2,3′-bipyridine], for which the IC50 was < 0.1 µM at recombinant human TYRO3 and 0.1 to 1 µM at recombinant human MER.
On to `Cc1cncnc1-c1ccc(-c2n[nH]c3ncc(-c4ccc5c(c4)CC[C@@H](N4C6COCC4C6)CC5)cc23)cc1` [Example 174, 6-[(7S)-2-{3-[4-(5-Methylpyrimidin-4-yl)phenyl]-1H-pyrazolo[3,4-b]pyridin-5-yl}-6,7,8,9-tetrahydro-5H-benzo[7]annulen-7-yl]-3-oxa-6-azabicyclo[3.1.1]heptane], for which the IC50 at recombinant human TYRO3 and on recombinant human MER was < 0.1 µM in each case.
As for `CC(C)(O)c1cccnc1-c1ccc(-c2c[nH]c3ncc(-c4ccc5c(c4)CC[C@@H](N4C6COCC4C6)CC5)cc23)cc1` [Example 95, 2-[2-(4-{5-[(7S)-7-{3-Oxa-6-azabicyclo[3.1.1]heptan-6-yl}-6,7,8,9-tetrahydro-5H-benzo[7]annulen-2-yl]-1H-pyrrolo[2,3-b]pyridin-3-yl}phenyl)pyridin-3-yl]propan-2-ol], the IC50 at recombinant human TYRO3 and at recombinant human MER was < 0.1 µM throughout.
Turning to `CN(C)C(=O)c1ccccc1-c1ccc(-c2c[nH]c3ncc(-c4ccc5c(c4)CC[C@@H](N4C6COCC4C6)CC5)cc23)cn1` [Example 170, N,N-Dimethyl-2-(5-{5-[(7S)-7-{3-oxa-6-azabicyclo[3.1.1]heptan-6-yl}-6,7,8,9-tetrahydro-5H-benzo[7]annulen-2-yl]-1H-pyrrolo[2,3-b]pyridin-3-yl}pyridin-2-yl)benzamide], the IC50 on recombinant human TYRO3 and at recombinant human MER was 0.1 to 1 µM each time.
As for `CN(C)S(=O)(=O)c1cccnc1-c1ccc(-c2c[nH]c3ncc(-c4ccc5c(c4)CC[C@@H](N4C6COCC4C6)CC5)cc23)cc1` [Example 6, N,N-Dimethyl-2-(4-{5-[(7S)-7-{3-oxa-6-azabicyclo[3.1.1]heptan-6-yl}-6,7,8,9-tetrahydro-5H-benzo[7]annulen-2-yl]-1H-pyrrolo[2,3-b]pyridin-3-yl}phenyl)pyridine-3-sulfonamide], the IC50 on recombinant human TYRO3 and at recombinant human MER was 0.1 to 1 µM in each case.
As for `Cc1nn(C)nc1-c1ccc(-c2n[nH]c3ncc(-c4ccc5c(c4)CC[C@@H](N4C6COCC4C6)CC5)cc23)cc1` [Example 14, 6-[(7S)-2-{3-[4-(2,5-Dimethyl-2H-1,2,3-triazol-4-yl)phenyl]-1H-pyrazolo[3,4-b]pyridin-5-yl}-6,7,8,9-tetrahydro-5H-benzo[7]annulen-7-yl]-3-oxa-6-azabicyclo[3.1.1]heptane], the IC50 is < 0.1 µM on recombinant human TYRO3 and 0.1 to 1 µM at recombinant human MER.
In the case of `CN(C)C(=O)c1cccnc1-c1ccc(-c2n[nH]c3ncc(-c4ccc5c(c4)CC[C@@H](N4C6COCC4C6)CC5)cc23)cc1` [Example 167, N,N-Dimethyl-2-(4-{5-[(7S)-7-{3-oxa-6-azabicyclo[3.1.1]heptan-6-yl}-6,7,8,9-tetrahydro-5H-benzo[7]annulen-2-yl]-1H-pyrazolo[3,4-b]pyridin-3-yl}phenyl)pyridine-3-carboxamide], the IC50 at recombinant human TYRO3 is < 0.1 µM; on recombinant human MER, 0.1 to 1 µM.
As for `Cc1nccnc1-c1ccc(-c2n[nH]c3ncc(-c4ccc5c(c4)CC[C@@H](N4C6COCC4C6)CC5)cc23)cc1` [Example 175, 6-[(7S)-2-{3-[4-(3-Methylpyrazin-2-yl)phenyl]-1H-pyrazolo[3,4-b]pyridin-5-yl}-6,7,8,9-tetrahydro-5H-benzo[7]annulen-7-yl]-3-oxa-6-azabicyclo[3.1.1]heptane], the IC50 on recombinant human TYRO3 and on recombinant human MER was 0.1 to 1 µM throughout.
For the molecule `FC(F)Oc1cccnc1-c1ccc(-c2n[nH]c3ncc(-c4ccc5c(c4)CC[C@@H](N4C6COCC4C6)CC5)cc23)cc1` [Example 99, 6-[(7S)-2-(3-{4-[3-(Difluoromethoxy)pyridin-2-yl]phenyl}-1H-pyrazolo[3,4-b]pyridin-5-yl)-6,7,8,9-tetrahydro-5H-benzo[7]annulen-7-yl]-3-oxa-6-azabicyclo[3.1.1]heptane], the IC50 at recombinant human TYRO3 and on recombinant human MER was 0.1 to 1 µM each time.
On to `c1cnc(-c2ccc(-c3c[nH]c4ncc(-c5ccc6c(c5)CC[C@@H](N5C7COCC5C7)CC6)cc34)cc2)c(N2CCOCC2)c1` [Example 5, 6-[(7S)-2-(3-{4-[3-(Morpholin-4-yl)pyridin-2-yl]phenyl}-1H-pyrrolo[2,3-b]pyridin-5-yl)-6,7,8,9-tetrahydro-5H-benzo[7]annulen-7-yl]-3-oxa-6-azabicyclo[3.1.1]heptane], for which the IC50 on recombinant human TYRO3 was < 0.1 µM; at recombinant human MER, 0.1 to 1 µM.
With `C[C@@H]1CCCN1[C@@]1(C)CCc2ccc(-c3cnc4[nH]nc(-c5ccc(-c6ncnn6C)cc5)c4c3)cc2CC1` [Example 112, 1-Methyl-5-(4-{5-[(7S)-7-methyl-7-[(2R)-2-methylpyrrolidin-1-yl]-6,7,8,9-tetrahydro-5H-benzo[7]annulen-2-yl]-1H-pyrazolo[3,4-b]pyridin-3-yl}phenyl)-1H-1,2,4-triazole], the IC50 at recombinant human TYRO3 and at recombinant human MER was < 0.1 µM in each case.
As for `Cc1cccnc1-c1ccc(-c2c[nH]c3ncc(-c4ccc5c(c4)CC[C@@H](N4CCCC4)CC5)cc23)cc1` [Example 173, 3-Methyl-2-(4-{5-[(7S)-7-(pyrrolidin-1-yl)-6,7,8,9-tetrahydro-5H-benzo[7]annulen-2-yl]-1H-pyrrolo[2,3-b]pyridin-3-yl}phenyl)pyridine], the IC50 on recombinant human TYRO3 and on recombinant human MER was < 0.1 µM each time.
